Measured values taken from PubChem BioAssay (NCI).
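How tested: cells in 96-well plates exposed to compound for 48 hours at five concentrations. Here, GI50 denotes the concentration required for 50% inhibition of growth. The concentration for full growth arrest is given as TGI.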

Columns and labels:
Assay in all cases: growth of human tumour cells (NCI), 48 h
NCI-H226 lung = test system: NCI-H226 lung
HT29 colon = test system: HT29 colon
TK-10 renal = test system: TK-10 renal
OVCAR-4 ovarian = test system: OVCAR-4 ovarian
A549 NSCLC = test system: A549 NSCLC
PC-3 prostate = test system: PC-3 prostate
OVCAR-3 ovarian = test system: OVCAR-3 ovarian
CCRF-CEM leukemia = test system: CCRF-CEM leukemia
EKVX NSCLC = test system: EKVX NSCLC

O=C(CCCC(=O)N1CC(CCl)c2ccc([N+](=O)[O-])cc21)N1CC(CCl)c2ccc([N+](=O)[O-])cc21 (stereo not drawn)
TGI (NCI-H226 lung): > 100 µM | TGI (HT29 colon): > 100 µM | TGI (TK-10 renal): > 100 µM | TGI (OVCAR-4 ovarian): > 100 µM | TGI (A549 NSCLC): 92.4 µM | TGI (PC-3 prostate): > 100 µM | TGI (OVCAR-3 ovarian): > 100 µM | TGI (CCRF-CEM leukemia): > 100 µM

CN(C)c1ccc(/C=N/NC2=N/C(=C\c3ccco3)C(=O)N2)cc1
TGI (NCI-H226 lung): > 100 µM | TGI (HT29 colon): > 100 µM | TGI (TK-10 renal): > 100 µM | TGI (A549 NSCLC): > 100 µM | TGI (PC-3 prostate): > 100 µM | TGI (EKVX NSCLC): > 100 µM | TGI (OVCAR-3 ovarian): > 100 µM | TGI (CCRF-CEM leukemia): > 100 µM

Clc1ccc(-c2nc(-c3ccc(Cl)cc3)[s+]s2)cc1
TGI (HT29 colon): > 100 µM | TGI (TK-10 renal): 86.5 µM | TGI (OVCAR-4 ovarian): 98.9 µM | TGI (A549 NSCLC): > 100 µM | TGI (PC-3 prostate): > 100 µM | TGI (EKVX NSCLC): > 100 µM | TGI (OVCAR-3 ovarian): > 100 µM | TGI (CCRF-CEM leukemia): 98.6 µM

Cn1c(N/N=C/c2ccc(Cl)cc2)nc(-c2ccc(Cl)cc2)c(C#N)c1=O
TGI (HT29 colon): > 100 µM | TGI (TK-10 renal): 76.3 µM | TGI (OVCAR-4 ovarian): 61.7 µM | TGI (A549 NSCLC): 39.2 µM | TGI (PC-3 prostate): 90.1 µM | TGI (EKVX NSCLC): 68.4 µM | TGI (OVCAR-3 ovarian): 32.7 µM | TGI (CCRF-CEM leukemia): > 100 µM

CN(C)c1ccc(/C=C2\N=C(c3ccccc3)N(c3nc4c(Cl)cc(Cl)cc4s3)C2=O)cc1
TGI (HT29 colon): > 100 µM | TGI (TK-10 renal): > 100 µM | TGI (OVCAR-4 ovarian): > 100 µM | TGI (A549 NSCLC): > 100 µM | TGI (PC-3 prostate): > 100 µM | TGI (EKVX NSCLC): > 100 µM | TGI (OVCAR-3 ovarian): > 100 µM | TGI (CCRF-CEM leukemia): 23.6 µM

CCCCCC(C)C[C@H]1CO[C@H](c2ccc[nH]2)N[C@H]1C(=O)OC (stereo partly drawn)
TGI (HT29 colon): > 100 µM | TGI (TK-10 renal): > 100 µM | TGI (OVCAR-4 ovarian): > 100 µM | TGI (A549 NSCLC): > 100 µM | TGI (PC-3 prostate): > 100 µM | TGI (EKVX NSCLC): > 100 µM | TGI (OVCAR-3 ovarian): > 100 µM | TGI (CCRF-CEM leukemia): > 100 µM

CC[C@H]1C=CCC[C@@]2(C[C@@H]3CC[C@@H]4[C@H](C(=O)OCCCCCCCCCCCCCCCC(=O)N(CCCN)C[C@@H](O)CCN)[C@]5(CCC[C@@H](C)O5)NC(=[N+]34)N2)O1
TGI (NCI-H226 lung): 3.66 µM | TGI (HT29 colon): 1.23 µM | TGI (TK-10 renal): 4.52 µM | TGI (OVCAR-4 ovarian): > 5.94 µM | TGI (A549 NSCLC): 1.25 µM | TGI (PC-3 prostate): 1.96 µM | TGI (EKVX NSCLC): 2.49 µM | TGI (OVCAR-3 ovarian): > 10 µM

O=C1/C(=C/c2cccs2)N=C(c2ccccc2)N1C1Nc2cc3c(cc2S1)NC(N1C(=O)/C(=C/c2cccs2)N=C1c1ccccc1)S3 (stereo not drawn)
TGI (NCI-H226 lung): 48.3 µM | TGI (HT29 colon): > 100 µM | TGI (TK-10 renal): > 100 µM | TGI (OVCAR-4 ovarian): 96.9 µM | TGI (A549 NSCLC): > 100 µM | TGI (PC-3 prostate): > 100 µM | TGI (EKVX NSCLC): 43.6 µM | TGI (OVCAR-3 ovarian): > 100 µM

Cc1nc2c(Br)cc(Br)cc2c(=O)n1-c1ccccc1N
TGI (NCI-H226 lung): 99.6 µM | TGI (HT29 colon): 65.4 µM | TGI (OVCAR-4 ovarian): > 100 µM | TGI (A549 NSCLC): > 100 µM | TGI (PC-3 prostate): > 100 µM | TGI (EKVX NSCLC): > 100 µM | TGI (OVCAR-3 ovarian): > 100 µM | TGI (CCRF-CEM leukemia): > 100 µM

N#CC(c1ccccc1)c1cccc2ccccc12 (stereo not drawn)
TGI (NCI-H226 lung): > 100 µM | TGI (HT29 colon): > 100 µM | TGI (TK-10 renal): > 100 µM | TGI (OVCAR-4 ovarian): > 100 µM | TGI (A549 NSCLC): 65.1 µM | TGI (PC-3 prostate): 71.6 µM | TGI (EKVX NSCLC): > 100 µM | TGI (OVCAR-3 ovarian): 86.6 µM

O=C(CSc1nc2ccc(I)cc2c(=O)n1Cc1ccccc1)Nc1ccc(Br)cc1
TGI (NCI-H226 lung): > 100 µM | TGI (HT29 colon): > 100 µM | TGI (OVCAR-4 ovarian): > 100 µM | TGI (A549 NSCLC): > 100 µM | TGI (PC-3 prostate): 58.6 µM | TGI (EKVX NSCLC): 38.9 µM | TGI (OVCAR-3 ovarian): > 100 µM | TGI (CCRF-CEM leukemia): > 100 µM

CCCCCCCCCC[C@@H](O)[C@@H]1CC[C@@H]([C@@H]2CC[C@@H]([C@@H](O)CCCCCCCCCCC(O)CC3=CC(C)OC3=O)O2)O1 (stereo partly drawn)
TGI (NCI-H226 lung): 6.84 µM | TGI (HT29 colon): > 10 µM | TGI (TK-10 renal): > 10 µM | TGI (OVCAR-4 ovarian): > 10 µM | TGI (A549 NSCLC): > 10 µM | TGI (PC-3 prostate): > 10 µM | TGI (EKVX NSCLC): > 10 µM | TGI (CCRF-CEM leukemia): > 10 µM

CN(C)Cc1cc(C(=O)/C=C/c2ccc(/C=C/C(=O)c3cc(CN(C)C)c(O)c(CN(C)C)c3)cc2)cc(CN(C)C)c1O
TGI (HT29 colon): 37.7 µM | TGI (TK-10 renal): > 100 µM | TGI (OVCAR-4 ovarian): > 100 µM | TGI (A549 NSCLC): > 100 µM | TGI (PC-3 prostate): 49.6 µM | TGI (EKVX NSCLC): > 100 µM | TGI (OVCAR-3 ovarian): > 100 µM | TGI (CCRF-CEM leukemia): > 100 µM

CC(=O)C(=C(I)I)c1ccccc1
TGI (NCI-H226 lung): 27.3 µM | TGI (HT29 colon): 35.2 µM | TGI (OVCAR-4 ovarian): 31.3 µM | TGI (A549 NSCLC): 56.2 µM | TGI (PC-3 prostate): 83.8 µM | TGI (EKVX NSCLC): 49.3 µM | TGI (OVCAR-3 ovarian): 30.3 µM | TGI (CCRF-CEM leukemia): 31.7 µM

C=C[C@H]1CN2CC[C@H]1C[C@@H]2[C@@H](O)c1ccnc2ccccc12
TGI (NCI-H226 lung): > 100 µM | TGI (HT29 colon): > 100 µM | TGI (TK-10 renal): > 100 µM | TGI (OVCAR-4 ovarian): > 100 µM | TGI (A549 NSCLC): > 100 µM | TGI (PC-3 prostate): > 100 µM | TGI (EKVX NSCLC): > 100 µM | TGI (OVCAR-3 ovarian): > 100 µM

O=C(c1cccs1)N(C(=O)N1CCC(c2ccccc2)CC1)c1ccccc1
TGI (NCI-H226 lung): > 100 µM | TGI (HT29 colon): > 100 µM | TGI (TK-10 renal): > 100 µM | TGI (PC-3 prostate): > 100 µM | TGI (EKVX NSCLC): 52.9 µM | TGI (OVCAR-3 ovarian): > 100 µM | TGI (CCRF-CEM leukemia): > 100 µM

CC(=O)O[C@H]1/C(=C/c2ccc(N(C)C)cc2)C[C@H]2[C@@H]3CC=C4C[C@@H](N5CCCC5)CC[C@]4(C)[C@H]3CC[C@]12C
TGI (NCI-H226 lung): > 100 µM | TGI (HT29 colon): > 100 µM | TGI (TK-10 renal): > 100 µM | TGI (A549 NSCLC): > 100 µM | TGI (PC-3 prostate): > 100 µM | TGI (EKVX NSCLC): > 100 µM | TGI (OVCAR-3 ovarian): > 100 µM

O=c1[nH]cnc2c1ncn2[C@H]1CO[C@@H](CO)[C@@H]1O
TGI (NCI-H226 lung): > 100 µM | TGI (HT29 colon): > 100 µM | TGI (TK-10 renal): > 100 µM | TGI (OVCAR-4 ovarian): > 100 µM | TGI (PC-3 prostate): > 100 µM | TGI (EKVX NSCLC): > 100 µM | TGI (OVCAR-3 ovarian): > 100 µM | TGI (CCRF-CEM leukemia): > 100 µM

NCCCCCCNc1cc(-c2cccc(OC(F)(F)F)c2)nc2ccc(N3CCCC3)cc12
GI50 (HT29 colon): 1.62 µM | TGI (HT29 colon): 3.06 µM | GI50 (TK-10 renal): 1.88 µM | TGI (TK-10 renal): 3.36 µM | GI50 (OVCAR-4 ovarian): 1.59 µM | TGI (OVCAR-4 ovarian): 3.17 µM | GI50 (EKVX NSCLC): 1.64 µM | TGI (EKVX NSCLC): 3.01 µM | GI50 (OVCAR-3 ovarian): 1.68 µM | TGI (OVCAR-3 ovarian): 3.14 µM

Cc1nnc2c3c(-c4ccccc4)c(-c4ccccc4)oc3nc(N(C)C)n12
TGI (NCI-H226 lung): > 100 µM | TGI (HT29 colon): > 100 µM | TGI (TK-10 renal): > 100 µM | TGI (OVCAR-4 ovarian): > 100 µM | TGI (A549 NSCLC): > 100 µM | TGI (EKVX NSCLC): > 100 µM | TGI (CCRF-CEM leukemia): > 100 µM

COc1ccc(-c2cn3ccnc3c(-c3ccc4ncn(C5CCCCC5)c4c3)n2)cc1
GI50 (NCI-H226 lung): 2.97 µM | TGI (NCI-H226 lung): > 100 µM | GI50 (TK-10 renal): 2.99 µM | TGI (TK-10 renal): 68.9 µM | GI50 (A549 NSCLC): 1.83 µM | TGI (A549 NSCLC): > 100 µM | GI50 (PC-3 prostate): 0.621 µM | TGI (PC-3 prostate): > 100 µM | GI50 (EKVX NSCLC): 3.04 µM | TGI (EKVX NSCLC): > 100 µM | GI50 (OVCAR-3 ovarian): 0.411 µM | TGI (OVCAR-3 ovarian): > 100 µM | GI50 (CCRF-CEM leukemia): 1.64 µM | TGI (CCRF-CEM leukemia): > 100 µM

O=C1CSC2(CCN(CCCN3c4ccccc4Sc4ccc(Cl)cc43)CC2)N1
TGI (NCI-H226 lung): 40.7 µM | TGI (HT29 colon): 11.9 µM | TGI (TK-10 renal): 21.2 µM | TGI (OVCAR-4 ovarian): 23.1 µM | TGI (A549 NSCLC): 23.4 µM | TGI (PC-3 prostate): 16.9 µM | TGI (EKVX NSCLC): 22.7 µM | TGI (OVCAR-3 ovarian): 22.1 µM

C=C1CCCCCCCCCCC1S(=O)c1ccccc1 (stereo not drawn)
TGI (NCI-H226 lung): > 100 µM | TGI (HT29 colon): > 100 µM | TGI (OVCAR-4 ovarian): > 100 µM | TGI (A549 NSCLC): > 100 µM | TGI (PC-3 prostate): > 100 µM | TGI (EKVX NSCLC): > 100 µM | TGI (OVCAR-3 ovarian): > 100 µM
